This note sets out measurements from patent US20250179059A1 (The Regents of the University of California, priority 2021, published 2025).

The target in assay [1] is T1, human BRD4 bromodomain II (Homo sapiens, UniProt O60885).
T1 construct: human BRD4 bromodomain II [based on Genbank NM_058243, residues 349-460]; host or cells: E. coli
As to the kind of experiment: Bromodomain binding assay (AlphaScreen), BRD4 BDII. A digest of the protocol: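 First, His6-tagged BRD4 bromodomain (BDI residues 44-170 or BDII residues 349-460) is incubated with compound for 30 min at room temperature. Next the biotinylated H4 peptide is added for 30 min, then donor and acceptor beads, with 60 min in the dark before AlphaScreen reading and IC50 fitting.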
On the technique in general: In Alpha technology, singlet oxygen from a donor bead excites a nearby acceptor bead.

The subject of assay [2] is human SKM-1 acute myeloid leukemia cells. As to the kind of experiment: SKM-1 antiproliferation cell-based assay (ATPlite). As to conditions: Homo sapiens. A digest of the protocol: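 Log-phase cells in RPMI 1640/15% FBS were seeded at 34722 cells/mL and exposed for 4 days to nine-concentration DMSO serial dilutions in triplicate. Viability was read as ATP luminescence (ATPlite 1step), and IC50 values came from variable-slope non-linear regression.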
In general terms: Cellular ATP, detected with luciferase, serves as a proxy for viable cell number.

Where [3] appears, read: AlphaScreen assay, Table C2, read-out: BRD4 BDII IC50.
Where [4] appears, read: SKM-1, 96 h, SKM-1 antiproliferation assay, 4 days, Table C2.
[5] abbreviates: BRD4 BDII AlphaScreen assay, read-out: BRD4 BD2 IC50.
The mark [6] stands for this setting: SKM-1, SKM-1 antiproliferation assay.

Molecules are shown by their SMILES. Read-outs that look alike come from different tables or passages of the source. Bounds are passed on as bounds.

As to `CN1CCN(c2ccc(-c3cc(F)cc(-c4ccnc(N5CCNC5=O)c4)c3O)cc2Cl)C1=O` [Example 354, 1-(3-chloro-5′-fluoro-2′-hydroxy-3′-(2-(2-oxoimidazolidin-1-yl)pyridin-4-yl)-[1,1′-biphenyl]-4-yl)-3-methylimidazolidin-2-one], the IC50 in assay [1] (setting [3]) is above 100 nM. In assay [2] (setting [4]), this compound displayed a GI50 of at least 3000 nM.

As to `CN[C@H]1CCN(c2cncc(-c3cc(F)cc(-c4ccc(-n5ccn(C)c5=O)c(Cl)c4)c3O)c2)C1` [Example 476, (S)-1-(3-chloro-5′-fluoro-2′-hydroxy-3′-(5-(3-(methylamino)pyrrolidin-1-yl)pyridin-3-yl)-[1,1′-biphenyl]-4-yl)-3-methyl-1H-imidazol-2(3H)-one], the half-maximal inhibitory concentration (IC50) in assay [1] (setting [3]) fell in the range of 0.01 to 1 nM. Moreover, the GI50 in assay [2] (setting [4]) was in the range of 0.3 to 30 nM.

With `Cn1ccn(-c2ccc(-c3cc(F)cc(-c4cc(-c5cn[nH]c5)nc(N5CCNCC5)c4)c3O)cc2Cl)c1=O` [Example 552, 1-(3-chloro-5′-fluoro-2′-hydroxy-3′-(2-(piperazin-1-yl)-6-(1H-pyrazol-4-yl)pyridin-4-yl)-[1,1′-biphenyl]-4-yl)-3-methyl-1H-imidazol-2(3H)-one], the IC50 in assay [1] (setting [3]) fell in the range of 0.01 to 1 nM. For the same compound, the GI50 in assay [2] (setting [4]) lay in the range of 0.3 to 30 nM.

On to `Cc1cc(-c2cc(F)cc(-c3cccc(N4CCN(C(C)(C)C)CC4)c3)c2O)cc(Cl)c1-n1ccn(C)c1=O` [Example 927, 1-(3″-(4-(tert-butyl)piperazin-1-yl)-3-chloro-5′-fluoro-2′-hydroxy-5-methyl-[1,1′:3′,1″-terphenyl]-4-yl)-3-methyl-1H-imidazol-2(3H)-one], for which the IC50 in assay [1] (setting [5]) fell in the range of 10 to 100 nM. In addition, the GI50 in assay [2] (setting [6]) lay within 30 to 300 nM.

On to `CC(=O)Nc1ccc(-c2cccc(-c3ccnc(N4CC[C@@H](N)C4)c3)c2O)cc1F` [Example 261, (R)-N-(3′-(2-(3-aminopyrrolidin-1-yl)pyridin-4-yl)-3-fluoro-2′-hydroxy-[1,1′-biphenyl]-4-yl)acetamide], for which the IC50 in assay [1] (setting [3]) fell in the range of 1 to 10 nM. Also, the GI50 in assay [2] (setting [4]) is 30 to 300 nM.

Consider `Cn1ccn(-c2ccc(-c3cc(F)cc(-c4ccnc(N5CCC[C@H](O)C5)c4)c3O)cc2Cl)c1=O` [Example 628, (S)-1-(3-chloro-5′-fluoro-2′-hydroxy-3′-(2-(3-hydroxypiperidin-1-yl)pyridin-4-yl)-[1,1′-biphenyl]-4-yl)-3-methyl-1H-imidazol-2(3H)-one], for which, in assay [1] (setting [3]), the IC50 lay within 0.01 to 1 nM. For the same compound, in assay [2] (setting [4]), the GI50 was in the range of 30 to 300 nM.

Regarding `Cn1ccn(-c2ccc(-c3cc(F)cc(-c4cccc(N5CCN(C(C)(C)C)CC5)n4)c3O)cc2Cl)c1=O` [Example 950, 1-(3′-(6-(4-(tert-butyl)piperazin-1-yl)pyridin-2-yl)-3-chloro-5′-fluoro-2′-hydroxy-[1,1′-biphenyl]-4-yl)-3-methyl-1H-imidazol-2(3H)-one], in assay [1] (setting [5]), the 50% inhibitory concentration (IC50) was above 100 nM. Besides, in assay [2] (setting [6]), the concentration for 50% growth inhibition (GI50) fell in the range of 300 to 3000 nM.

Take `O=C1CCCCN1c1ccc(-c2cc(F)cc(-c3ccnc(N4CCNCC4)c3)c2O)cc1Cl` [Example 281, 1-(3-chloro-5′-fluoro-2′-hydroxy-3′-(2-(piperazin-1-yl)pyridin-4-yl)-[1,1′-biphenyl]-4-yl)piperidin-2-one]: in assay [1] (setting [3]), the IC50 fell in the range of 10 to 100 nM. Also, the GI50 in assay [2] (setting [4]) lay within 300 to 3000 nM.

`CC(=O)N(C)C1(c2cccc(-c3cc(F)cc(-c4ccc(-n5ccn(C)c5=O)c(Cl)c4)c3O)c2)CC1` [Example 794, N-(1-(3″-chloro-5′-fluoro-2′-hydroxy-4″-(3-methyl-2-oxo-2,3-dihydro-1H-imidazol-1-yl)-[1,1′:3′,1″-terphenyl]-3-yl)cyclopropyl)-N-methylacetamide]: in assay [1] (setting [3]), the half-maximal inhibitory concentration (IC50) lay within 10 to 100 nM. This compound gave a GI50 in assay [2] (setting [4]) of 300 to 3000 nM.

In the case of `Cn1ccn(-c2ccc(-c3cc(F)cc(-c4ccc(C(F)F)c(N5CCN(C(C)(C)C)CC5)c4)c3O)cc2Cl)c1=O` [Example 813, 1-(3″-(4-(tert-butyl)piperazin-1-yl)-3-chloro-4″-(difluoromethyl)-5′-fluoro-2′-hydroxy-[1,1′:3′,1″-terphenyl]-4-yl)-3-methyl-1H-imdiazol-2(3H)-one], in assay [1] (setting [3]), the IC50 lay within 0.01 to 1 nM. Further, the GI50 in assay [2] (setting [4]) was in the range of 30 to 300 nM.

`CCc1cc(-c2ccnc(N3CCNCC3)c2)c(O)c(-c2ccc(N3CCN(C)C3=O)c(Cl)c2)c1` [Example 311, l-(3-chloro-5′-ethyl-2′-hydroxy-3′-(2-(piperazin-1-yl)pyridin-4-yl)-[1,1′-biphenyl]-4-yl)-3-methylimidazolidin-2-one]: in assay [1] (setting [3]), the IC50 lay in the range of 1 to 10 nM. In addition, the concentration for 50% growth inhibition (GI50) in assay [2] (setting [4]) was in the range of 300 to 3000 nM.

In the case of `O=C1NCCN1c1ccc(-c2cccc(-c3ccnc(N4CCNCC4)c3)c2O)cc1F` [Example 231, 1-(3-fluoro-2′-hydroxy-3′-(2-(piperazin-1-yl)pyridin-4-yl)-[1,1′-biphenyl]-4-yl)imidazolidin-2-one], the half-inhibitory concentration (IC50) in assay [1] (setting [3]) is 1 to 10 nM. In assay [2] (setting [4]), this compound gave a 50% growth inhibitory concentration (GI50) of 300 to 3000 nM.

With `Cn1ccn(-c2ccc(-c3cc(F)cc(-c4cccc(N5CC[C@](C)(N)C5)c4)c3O)cc2Cl)c1=O` [Example 749, (S)-1-(3″-(3-amino-3-methylpyrrolidin-1-yl)-3-chloro-5′-fluoro-2′-hydroxy-[1,1′:3′,1″-terphenyl]-4-yl)-3-methyl-1H-imidazol-2(3H)-one], the half-inhibitory concentration (IC50) in assay [1] (setting [3]) fell in the range of 1 to 10 nM. Besides, the 50% growth inhibitory concentration (GI50) in assay [2] (setting [4]) fell in the range of 0.3 to 30 nM.

On to `CN1C2CCC1CN(c1cc(-c3cc(F)cc(-c4ccc(-n5ccn(C)c5=O)c(Cl)c4)c3O)ccn1)C2` [Example 513, 1-(3-chloro-5′-fluoro-2′-hydroxy-3′-(2-(8-methyl-3,8-diazabicyclo[3.2.1]octan-3-yl)pyridin-4-yl)-[1,1′-biphenyl]-4-yl)-3-methyl-1H-imidazol-2(3H)-one], for which, in assay [1] (setting [3]), the IC50 is 1 to 10 nM. In assay [2] (setting [4]), this compound had a GI50 of 0.3 to 30 nM.

Consider `Cn1ccn(-c2ccc(-c3cc(F)cc(-c4ccnc(N5CCN(C[C@@H](O)CO)CC5)c4)c3O)cc2Cl)c1=O` [Example 610, (R)-1-(3-chloro-3′-(2-(4-(2,3-dihydroxypropyl)piperazin-1-yl)pyridin-4-yl)-5′-fluoro-2′-hydroxy-[1,1′-biphenyl]-4-yl)-3-methyl-1H-imidazol-2(3H)-one], for which the IC50 in assay [1] (setting [3]) lay in the range of 0.01 to 1 nM. In assay [2] (setting [4]), this compound gave a 50% growth inhibitory concentration (GI50) of 0.3 to 30 nM.

`Cc1ncc(-c2cc(F)cc(-c3ccc(-n4ccn(C)c4=O)c(Cl)c3)c2O)cc1N1CC[C@]2(CCCN2C(C)C)C1` [Example 956, (R)-1-(3-chloro-5′-fluoro-2′-hydroxy-3′-(5-(1-isopropyl-1,7-diazaspiro[4.4]nonan-7-yl)-6-methylpyridin-3-yl)-[1,1′-biphenyl]-4-yl)-3-methyl-1,3-dihydro-2H-imidazol-2-one]: in assay [1] (setting [5]), the IC50 lay within 1 to 10 nM. This compound had a 50% growth inhibitory concentration (GI50) in assay [2] (setting [6]) of 0.3 to 30 nM.

On to `CC(=O)Nc1ccc(-c2cccc(-c3ccc(F)c(N4CCNCC4)c3)c2O)cc1F` [Example 182, N-(3,4″-difluoro-2′-hydroxy-3(piperazin-1-yl)-[1,1′:3′,1″-terphenyl]-4-yl)acetamide], for which the IC50 in assay [1] (setting [3]) was 1 to 10 nM. This compound registered a GI50 in assay [2] (setting [4]) of 300 to 3000 nM.

With `C[C@@H]1CN(c2cc(-c3cc(F)cc(-c4ccc(-n5ccn(C)c5=O)c(Cl)c4)c3O)cc3[nH]nnc23)CCN1` [Example 536, (R)-1-(3-chloro-5′-fluoro-2′-hydroxy-3′-(4-(3-methylpiperazin-1-yl)-1H-benzo[d][1,2,3]triazol-6-yl)-[1,1′-biphenyl]-4-yl)-3-methyl-1H-imidazol-2(3H)-one], in assay [1] (setting [3]), the IC50 lay within 1 to 10 nM. For the same compound, the 50% growth inhibitory concentration (GI50) in assay [2] (setting [4]) lay within 0.3 to 30 nM.

For the compound `Cn1ccn(-c2ccc(-c3cc(F)cc(-c4ccnc(N5CC6(CC6)[C@@](C)(O)C5)c4)c3O)cc2Cl)c1=O` [Example 816], in assay [1] (setting [3]), the half-maximal inhibitory concentration (IC50) was 0.01 to 1 nM. In assay [2] (setting [4]), this compound displayed a GI50 of 0.3 to 30 nM.

Turning to `Cn1ccn(-c2ccc(-c3cc(F)cc(-c4cccc(-c5ccc(N)cc5)c4)c3O)cc2Cl)c1=O` [Example 855], in assay [1] (setting [5]), the IC50 lay in the range of 10 to 100 nM. For the same compound, the concentration for 50% growth inhibition (GI50) in assay [2] (setting [6]) lay in the range of 30 to 300 nM.

In the case of `CC(C)N1CCN(c2cc(-c3cc(F)cc(-c4ccc(-n5ccn(C)c5=O)c(Cl)c4)c3O)ccc2C(F)F)CC1` [Example 814, 1-(3-chloro-4″-(difluoromethyl)-5′-fluoro-2′-hydroxy-3″-(4-isopropylpiperazin-1-yl)-[1,1′:3′,1″-terphenyl]-4-yl)-3-methyl-1H-imidazol-2(3H)-one], the concentration for half-maximal inhibition (IC50) in assay [1] (setting [3]) was 0.01 to 1 nM. The compound also came in with a GI50 in assay [2] (setting [4]) of 0.3 to 30 nM.

`Cc1cc(-c2ccc(-n3ccn(C)c3=O)c(Cl)c2)c(O)c(-c2ccc(Cl)c(N3CCN(C(C)(C)C)CC3)c2)n1` [Example 1013, 1-(4-(2-(3-(4-(tert-butyl)piperazin-1-yl)-4-chlorophenyl)-3-hydroxy-6-methylpyridin-4-yl)-2-chlorophenyl)-3-methyl-1H-imidazol-2(3H)-one]: the IC50 in assay [1] (setting [5]) lay within 1 to 10 nM. In assay [2] (setting [6]), this compound returned a GI50 of 0.3 to 30 nM.

For `COc1ncc(-c2cc(F)cc(-c3ccc(-n4ccn(C)c4=O)c(Cl)c3)c2O)cc1N1CCN(C(C)(C)CO)CC1` [Example 960, 1-(3-chloro-5′-fluoro-2′-hydroxy-3′-(5-(4-(1-hydroxy-2-methylpropan-2-yl)piperazin-1-yl)-6-methoxypyridin-3-yl)-[1,1′-biphenyl]-4-yl)-3-methyl-1H-imidazol-2(3H)-one], the IC50 in assay [1] (setting [5]) was in the range of 1 to 10 nM. The 50% growth inhibitory concentration (GI50) in assay [2] (setting [6]) lay within 0.3 to 30 nM.

On to `C[C@@H]1CN(c2cc(-c3cc(F)cc(-c4ccc(-n5ccn(C)c5=O)c(Cl)c4)c3O)cc(OCCCO)n2)CCN1` [Example 638, (R)-1-(3-chloro-5′-fluoro-2′-hydroxy-3′-(2-(3-hydroxypropoxy)-6-(3-methylpiperazin-1-yl)pyridin-4-yl)-[1,1′-biphenyl]-4-yl)-3-methyl-1H-imidazol-2(3H)-one], for which, in assay [1] (setting [3]), the IC50 is 0.01 to 1 nM. For the same compound, the concentration for 50% growth inhibition (GI50) in assay [2] (setting [4]) lay within 0.3 to 30 nM.

The term IC50 denotes the concentration at which inhibition is half-maximal. What is called GI50 is the concentration giving 50% growth inhibition. Read a high GI50 as lower sensitivity of the cells.
